From paper PMC12844335, “Cycloruthenated Imines: A Step into the Nanomolar Region” (Molecules, 2026)
Like-named read-outs stand apart in the source and are kept apart here.

Legend:
[1] = system: HEK293 human embryonic kidney cell line; experiment: MTT antiproliferative assay, HEK293; type: cell-based; details: for Selectivity Index, SI: IC50 on HEK293 divided on IC50 on A2780; for IC50: MTT, 72 h incubation, mean ± SD of three independent experiments;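 for all read-outs here: cells grown at 37 °C under humidified 5% CO2, cisplatin run alongside as positive control, each test in triplicate wells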
Experimental: (§1) The in vitro antiproliferative activity of the synthesized Ru-organometallic compounds and several starting ligands was evaluated against three human cell lines using the MTT assay. We selected a small panel of cell lines that provided insights into the efficacy and potential therapeutic utility of the compounds. The panel includes the A2780 human ovarian carcinoma cell line, which is sensitive to cisplatin, its cisplatin-resistant counterpart, A2780cis, also a non-malignant human embryonic kidney cell line, HEK293. The use of A2780 and A2780cis paired cell lines allowed us to directly assess the ability of the compounds to overcome resistance mechanisms. The inclusion of the HEK293 cell line can give us preliminary indication of selectivity against non-cancerous cells. Cisplatin, a clinically used drug, was used as a positive control in all experiments. All studies were performed in triplicate and repeated in three independent experiments.
(§2) The human A2780 ovarian adenocarcinoma, A2780cis cisplatin resistant ovarian adenocarcinoma, HEK293 human embryonic kidney cell lines were obtained from the European collection of authenticated cell cultures (ECACC; Salisbury, UK). Cells were grown in a RPMI 1640 (Gibco™, Cork, Ireland) cell medium (A2780, A2780cis), or DMEM (Gibco™, Ireland) cell medium (HEK293) supplemented with 10% fetal bovine serum (Gibco™, São Paulo, Brazil). The cells were cultured in an incubator at 37 °C in a humidified 5% CO2 atmosphere and were subcultured two times a week. The antiproliferative activity was studied by MTT assays as published previously [38].

[2] = system: A2780 human ovarian carcinoma cell line; experiment: MTT antiproliferative assay, A2780; type: cell-based; details: mean ± SD of three independent experiments, read-out: IC50 (72 h) А2780
Experimental: as §1, §2

[3] = system: A2780cis cisplatin resistant ovarian adenocarcinoma; experiment: MTT antiproliferative assay, A2780cis; type: cell-based, human; details: for Rf resistance coefficient: IC50 on A2780cis divided on IC50 on A2780; for IC50: MTT, 72 h incubation, mean ± SD of three independent experiments;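 for all read-outs here: antiproliferative MTT assay with 72 h exposure on cisplatin-resistant A2780cis versus parent A2780 cells, cisplatin as positive control, triplicate wells in each of three independent experiments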
Experimental: as §1, §2

[4] = Homo sapiens, A2780, 72 h incubation

`N.N.[Cl][Pt][Cl]` [Cisplatin, reference compound] was tested, and the “Selectivity Index, SI” value [1] was 8.3, the IC50 [1] was 22000 nM and the IC50 ([2]; 72 h incubation) was 2640 ± 350 nM. The Rf resistance coefficient [3] was 5.9.
For `COc1ccc([N+]2=Cc3scc[c]3[Ru-4]234([n+]2ccccc2-c2cccc[n+]23)[n+]2ccccc2-c2cccc[n+]24)cc1.F[P-](F)(F)(F)(F)F` [Compound 3l, Bis(2,2′-bipiridine)[N-((thiophene-2-yl-κC^2)methyliden]-4-methoxyaniline-κN]ruthenium(II) hexafluorophosphate], the “Selectivity Index, SI” value [1] was 1.0, the IC50 [1] was 40 ± 10 nM and the IC50 ([2]; 72 h incubation) was 39 ± 3 nM. The Rf resistance coefficient [3] was 1.0 and the IC50 [3] was 39 ± 10 nM.
With `F[P-](F)(F)(F)(F)F.O=[N+]([O-])c1ccc([N+]2=Cc3cccc[c]3[Ru-4]234([n+]2ccccc2-c2cccc[n+]23)[n+]2ccccc2-c2cccc[n+]24)cc1` [Compound 3h, Bis(2,2′-bipiridine)[N-((phenyl-κC^2)methyliden]-4-nitroaniline-κN]ruthenium(II) hexafluorophosphate] the “Selectivity Index, SI” value [1] was 1.5, the IC50 [1] was 370 ± 80 nM and the IC50 ([2]; 72 h incubation) was 250 ± 30 nM. The Rf resistance coefficient [3] was 3.0 and the IC50 [3] was 760 ± 80 nM.
For `CCOC(=O)c1ccc([N+]2=Cc3cccc[c]3[Ru-4]234([n+]2ccccc2-c2cccc[n+]23)[n+]2ccccc2-c2cccc[n+]24)cc1.F[P-](F)(F)(F)(F)F` [Compound 3g, Bis(2,2′-bipiridine)[N-((phenyl-κC^2)methyliden]-4-ethoxycarbonylaniline-κN]ruthenium(II) hexafluorophosphate], the “Selectivity Index, SI” value [1] was 1.4, the IC50 [1] was 140 ± 20 nM and the IC50 ([2]; 72 h incubation) was 100 ± 20 nM. It also gave a Rf resistance coefficient [3] of 2.3 and an IC50 [3] of 230 ± 20 nM.
For `Cc1ccc([N+]2=Cc3scc[c]3[Ru-4]234([n+]2ccccc2-c2cccc[n+]23)[n+]2ccccc2-c2cccc[n+]24)cc1.F[P-](F)(F)(F)(F)F` [Compound 3k, Bis(2,2′-bipiridine)[N-((thiophene-2-yl-κC^2)methyliden]-4-methylaniline-κN]ruthenium(II) hexafluorophosphate], the “Selectivity Index, SI” value [1] was 2.3, the IC50 [1] was 70 ± 30 nM and the IC50 ([2]; 72 h incubation) was 30 ± 2 nM. For the same compound, the Rf resistance coefficient [3] was 0.3 and the IC50 [3] was 10 ± 0.4 nM.
In the case of `FC(F)(F)c1ccc([N+]2=Cc3scc[c]3[Ru-4]234([n+]2ccccc2-c2cccc[n+]23)[n+]2ccccc2-c2cccc[n+]24)cc1.F[P-](F)(F)(F)(F)F` [Compound 3o, Bis(2,2′-bipiridine)[N-((thiophene-2-yl-κC^2)methyliden]-4-(trifluoromethyl)aniline-κN]ruthenium(II) hexafluorophosphate], the “Selectivity Index, SI” value [1] is reported as 1.7, the IC50 [1] is reported as 160 ± 30 nM and the IC50 ([2]; 72 h incubation) is reported as 96 ± 3 nM. The IC50 [3] was 150 ± 5 nM.
`CCOC(=O)c1ccc([N+]2=Cc3scc[c]3[Ru-4]234([n+]2ccccc2-c2cccc[n+]23)[n+]2ccccc2-c2cccc[n+]24)cc1.F[P-](F)(F)(F)(F)F` [Compound 3m, Bis(2,2′-bipiridine)[N-((thiophene-2-yl-κC^2)methyliden]-4-ethoxycarbonylaniline-κN]ruthenium(II) hexafluorophosphate] was tested, and the “Selectivity Index, SI” value [1] was 2.5, the IC50 [1] was 140 ± 10 nM and the IC50 ([2]; 72 h incubation) was 57 ± 20 nM. The Rf resistance coefficient [3] was 1.5 and the IC50 [3] was 84 ± 12 nM.
With `F[P-](F)(F)(F)(F)F.Fc1ccc([N+]2=Cc3scc[c]3[Ru-4]234([n+]2ccccc2-c2cccc[n+]23)[n+]2ccccc2-c2cccc[n+]24)cc1` [Compound 3j, Bis(2,2′-bipiridine)[N-((thiophene-2-yl-κC^2)methyliden]-4-fluoroaniline-κN]ruthenium(II) hexafluorophosphate] the “Selectivity Index, SI” value [1] was 1.4, the IC50 [1] was 60 ± 10 nM and the IC50 ([2]; 72 h incubation) was 43 ± 3 nM. For the same compound, the Rf resistance coefficient [3] was 2.1 and the IC50 [3] was 91 ± 9 nM.
`Cc1ccc([N+]2=Cc3cccc[c]3[Ru-4]234([n+]2ccccc2-c2cccc[n+]23)[n+]2ccccc2-c2cccc[n+]24)cc1.F[P-](F)(F)(F)(F)F` [Compound 3c, Bis(2,2′-bipiridine)[N-((phenyl-κC^2)methyliden]-4-methylaniline-κN]ruthenium(II) hexafluorophosphate] was tested, and the “Selectivity Index, SI” value [1] was 1.0, the IC50 [1] was 70 ± 10 nM and the IC50 ([2]; 72 h incubation) was 70 ± 6 nM. For the same compound, the Rf resistance coefficient [3] was 1.7 and the IC50 [3] was 120 ± 10 nM.
`COc1ccc([N+]2=Cc3cccc[c]3[Ru-4]234([n+]2ccccc2-c2cccc[n+]23)[n+]2ccccc2-c2cccc[n+]24)cc1.F[P-](F)(F)(F)(F)F` [Compound 3f, Bis(2,2′-bipiridine)[N-((phenyl-κC^2)methyliden]-4-methoxyaniline-κN]ruthenium(II) hexafluorophosphate] was tested, and the “Selectivity Index, SI” value [1] was 1.0, the IC50 [1] was 64 ± 7 nM and the IC50 ([2]; 72 h incubation) was 65 ± 4 nM. For the same compound, the Rf resistance coefficient [3] was 1.8 and the IC50 [3] was 120 ± 40 nM.
In the case of `C1=[N+](c2ccccc2)[Ru-4]23([c]4ccccc41)([n+]1ccccc1-c1cccc[n+]12)[n+]1ccccc1-c1cccc[n+]13.F[P-](F)(F)(F)(F)F` [Compound 3a, Bis(2,2′-bipiridine)[N-((phenyl-κC^2)methyliden]aniline-κN]ruthenium(II) hexafluorophosphate], the “Selectivity Index, SI” value [1] is reported as 1.6, the IC50 [1] is reported as 53 ± 4 nM and the IC50 ([2]; 72 h incubation) is reported as 33 ± 7 nM. For the same compound, the Rf resistance coefficient [3] was 0.9 and the IC50 [3] was 30 ± 10 nM.
`F[P-](F)(F)(F)(F)F.O=[N+]([O-])c1ccc([N+]2=Cc3scc[c]3[Ru-4]234([n+]2ccccc2-c2cccc[n+]23)[n+]2ccccc2-c2cccc[n+]24)cc1` [Compound 3n, Bis(2,2′-bipiridine)[N-((thiophene-2-yl-κC^2)methyliden]-4-nitroaniline-κN]ruthenium(II) hexafluorophosphate] was tested, and the “Selectivity Index, SI” value [1] was 2.0, the IC50 [1] was 530 ± 30 nM and the IC50 ([2]; 72 h incubation) was 270 ± 4 nM. For the same compound, the Rf resistance coefficient [3] was 3.6 and the IC50 [3] was 960 ± 100 nM.
`CCc1ccc([N+]2=Cc3cccc[c]3[Ru-4]234([n+]2ccccc2-c2cccc[n+]23)[n+]2ccccc2-c2cccc[n+]24)cc1.F[P-](F)(F)(F)(F)F` [Compound 3d, Bis(2,2′-bipiridine)[N-((phenyl-κC^2)methyliden]-4-ethylaniline-κN]ruthenium(II) hexafluorophosphate] was tested, and the “Selectivity Index, SI” value [1] was 1.8, the IC50 [1] was 80 ± 10 nM and the IC50 ([2]; 72 h incubation) was 45 ± 5 nM. For the same compound, the Rf resistance coefficient [3] was 3.3 and the IC50 [3] was 150 ± 10 nM.
`CCOC(=O)c1ccc(/N=C/c2ccccc2)cc1` [Compound 1g] gave an IC50 ([1]; Homo sapiens, HEK293) of 25400 nM, an IC50 [2, 4] of 42100 nM and an IC50 ([3]; Homo sapiens, A2780cis) greater than 100000 nM.
With `CC(C)(C)c1ccc([N+]2=Cc3cccc[c]3[Ru-4]234([n+]2ccccc2-c2cccc[n+]23)[n+]2ccccc2-c2cccc[n+]24)cc1.F[P-](F)(F)(F)(F)F` [Compound 3e, Bis(2,2′-bipiridine)[N-((phenyl-κC^2)methyliden]-4-(tert-butyl)aniline-κN]ruthenium(II) hexafluorophosphate] the “Selectivity Index, SI” value [1] was 1.0, the IC50 [1] was 68 ± 6 nM and the IC50 ([2]; 72 h incubation) was 70 ± 30 nM. It also gave a Rf resistance coefficient [3] of 2.4 and an IC50 [3] of 170 ± 30 nM.
With `FC(F)(F)c1ccc([N+]2=Cc3cccc[c]3[Ru-4]234([n+]2ccccc2-c2cccc[n+]23)[n+]2ccccc2-c2cccc[n+]24)cc1.F[P-](F)(F)(F)(F)F` [Compound 3i, Bis(2,2′-bipiridine)[N-((phenyl-κC^2)methyliden]-4-(trifluoromethyl)aniline-κN]ruthenium(II) hexafluorophosphate] the “Selectivity Index, SI” value [1] was 1.3, the IC50 [1] was 107 ± 8 nM and the IC50 ([2]; 72 h incubation) was 80 ± 10 nM. For the same compound, the Rf resistance coefficient [3] was 3.0 and the IC50 [3] was 240 ± 20 nM.
`Fc1ccc(/N=C/c2ccccc2)cc1` [Compound 1b] showed an IC50 ([1]; Homo sapiens, HEK293) of 21600 nM, an IC50 [2, 4] greater than 200000 nM and an IC50 ([3]; Homo sapiens, A2780cis) greater than 100000 nM.
For `F[P-](F)(F)(F)(F)F.Fc1ccc([N+]2=Cc3cccc[c]3[Ru-4]234([n+]2ccccc2-c2cccc[n+]23)[n+]2ccccc2-c2cccc[n+]24)cc1` [Compound 3b, Bis(2,2′-bipiridine)[N-((phenyl-κC^2)methyliden]-4-fluoroaniline-κN]ruthenium(II) hexafluorophosphate], the “Selectivity Index, SI” value [1] was 1.1, the IC50 [1] was 100 ± 30 nM and the IC50 ([2]; 72 h incubation) was 90 ± 30 nM. The Rf resistance coefficient [3] was 2.8 and the IC50 [3] was 250 ± 60 nM.
